Molecules are shown by their SMILES. Bounds are passed on as bounds.

For 50 molecules, inhibition and EC50 results are on record in patent US12655090B2, “Cyclopropylamide compounds against parasites in fish” (Intervet Inc., priority 2021, dated 2026).

Experiment [1] concerns Copepodids (juvenile sea lice stage of Lepeophtheirus salmonis). The experiment is described as follows: Juvenile sea lice contact assay. Conditions: approximately 24 hours continuous exposure in seawater, read-out: Sea lice inhibition (% of dead+damaged copepodids); for inhibition at 0.01 µM: test concentration 10 nM; for inhibition at 0.1 µM: test concentration 100 nM; for inhibition at 0.001 µM: test concentration 1 nM; for inhibition at 10 pM: test concentration 0.01 nM. As for the experimental part: Copepodids (juvenile sea lice stage of Lepeophtheirus salmonis) were exposed to seawater spiked with declining concentrations of a test compound (dissolved in a DMSO sea-water mixture). Sea lice inhibition (% of dead+damaged copepodids) was assessed after approximately 24 hours of continuous exposure. The vitality of used parasites was confirmed in a negative (solvent) control group.

The test system of experiment [2] is Mobile stages of sea lice (pre-adults, adults of Lepeophtheirus salmonis). The experiment is described as follows: Adult sea lice contact assay. To be noted: assessed after approximately 1 and 24 hours of continuous exposure, read-out: EC50 (sea lice inhibition, dead+damaged sea lice). The procedure: Mobile stages of sea lice (i.e., pre-adults, adults of Lepeophtheirus salmonis) were exposed to seawater spiked with declining concentrations of a test compound (dissolved in a PEG sea-water mixture). Sea lice inhibition (% of dead+damaged sea lice) was assessed after approximately 1 and 24 hours of continuous exposure in comparison to a negative (solvent) control group.

On to `O=C(NCC(F)(F)F)c1cc(NC(=O)C2C(c3cc(Cl)cc(Cl)c3)C2(Cl)Cl)ccc1Cl` (racemic) [Compound 1500], for which the inhibition (in general, the share of the control response that was lost under treatment) at 0.01 µM in experiment [1] is at least 80%.
In the case of `N#CC1(NC(=O)c2cc(NC(=O)C3C(c4ccc(Cl)c(Cl)c4)C3(Cl)Cl)ccc2Cl)CC1` (racemic) [Compound 1501], the inhibition at 0.01 µM in experiment [1] was at least 80%.
Same read-out and setting: with `CC(C)CNC(=O)c1cc(NC(=O)C2C(c3cc(Cl)cc(Cl)c3)C2(Cl)Cl)ccc1Cl` (racemic) [Compound 1502] the figure was 100%.
For `O=C(NC1CC(F)(F)C1)c1cc(NC(=O)C2C(c3cccc(C(F)(F)F)c3)C2(Cl)Cl)ccc1Cl` (racemic) [Compound 1508], in experiment [1], the inhibition at 0.01 µM is 100%. For the same molecule, the EC50 (in general, the concentration that produces a half-maximal response) in experiment [2] lay in the range of 1 to 10 nM.
On to `CCNC(=O)c1cc(NC(=O)C2C(c3cc(Cl)cc(Cl)c3)C2(Cl)Cl)ccc1Cl` (racemic) [Compound 1509], for which the inhibition at 0.01 µM in experiment [1] was 100%.
As for `O=C(NC1COC1)c1cc(NC(=O)C2C(c3cc(Cl)cc(Cl)c3)C2(Cl)Cl)ccc1Cl` (racemic) [Compound 1510], the inhibition at 0.01 µM in experiment [1] came to 100%.
Regarding `Cc1cc(Cl)cc(C2C(C(=O)Nc3ccc(Cl)c(C(=O)NC4CC(F)(F)C4)c3)C2(Cl)Cl)c1` (racemic) [Compound 1513], the inhibition at 0.01 µM in experiment [1] was 100%.
As for `Cc1cc(C2C(C(=O)Nc3ccc(Cl)c(C(=O)NC4(C#N)CC4)c3)C2(Cl)Cl)cc(Cl)c1Cl` (racemic) [Compound 1514], the inhibition at 0.1 µM in experiment [1] was determined as 100%. For the same molecule, in experiment [2], the EC50 was in the range of 10 to 25 nM.
Consider `N#CC1(NC(=O)c2cc(NC(=O)C3C(c4cc(Cl)cc(Cl)c4)C3(Cl)Cl)ccc2Cl)CC1` (racemic) [Compound 1515], for which the inhibition at 0.01 µM in experiment [1] is 100%.
As for `CC1(NC(=O)c2cc(NC(=O)C3C(c4cc(Cl)cc(Cl)c4)C3(Cl)Cl)ccc2Cl)CC1` (racemic) [Compound 1523], the inhibition at 0.001 µM in experiment [1] turned out to be 80%.
Turning to `O=C(NC1CCOC1=O)c1cc(NC(=O)C2C(c3cc(Cl)cc(Cl)c3)C2(Cl)Cl)ccc1Cl` (racemic) [Compound 1526], in experiment [1], the inhibition at 0.01 µM was determined as 100%.
As to `N#Cc1cc(Cl)cc(C2C(C(=O)Nc3ccc(Cl)c(C(=O)NC4(C#N)CC4)c3)C2(Cl)Cl)c1` (racemic) [Compound 1532], the inhibition at 0.1 µM in experiment [1] is 100%. In addition, in experiment [2], the EC50 fell in the range of 10 to 25 nM.
Take `O=C(NCCF)c1cc(NC(=O)C2C(c3ccc(F)c(Cl)c3)C2(Cl)Cl)ccc1Cl` (racemic) [Compound 1536]: the inhibition at 10 pM in experiment [1] was found to be 100%.
In the case of `O=C(NCC(F)(F)F)c1cc(NC(=O)C2C(c3ccc(F)c(Cl)c3)C2(Cl)Cl)ccc1Cl` (racemic) [Compound 1537], in experiment [1], the inhibition at 0.01 µM came to 100%.
Take `O=C(NCCC(F)(F)F)c1cc(NC(=O)C2C(c3ccc(F)c(Cl)c3)C2(Cl)Cl)ccc1Cl` (racemic) [Compound 1538]: the inhibition at 10 pM in experiment [1] came out at 100%.
With `O=C(NCCF)c1cc(NC(=O)C2C(c3cc(Cl)cc(Cl)c3)C2(Cl)Cl)cc(Cl)c1Cl` (racemic) [Compound 1539], the inhibition at 0.01 µM in experiment [1] stood at 100%.
As to `N#CC1(NC(=O)c2cc(NC(=O)C3C(c4cc(F)c(Br)c(F)c4)C3(Cl)Cl)ccc2Cl)CC1` (racemic) [Compound 1544], the inhibition at 0.1 µM in experiment [1] worked out at 100%.
As to `N#CC1(NC(=O)c2cc(NC(=O)C3C(c4cc(Cl)cc(C(F)F)c4)C3(Cl)Cl)ccc2Cl)CC1` (racemic) [Compound 1545], the inhibition at 0.1 µM in experiment [1] was found to be 100%. For the same molecule, in experiment [2], the EC50 fell in the range of 10 to 25 nM.
`N#CC1(NC(=O)c2cc(NC(=O)C3C(c4ccc(Cl)c(C(F)F)c4)C3(Cl)Cl)ccc2Cl)CC1` (racemic) [Compound 1546]: in experiment [1], the inhibition at 0.1 µM was 100%. Further, the EC50 in experiment [2] lay in the range of 10 to 25 nM.
Turning to `N#CC1(NC(=O)c2cc(NC(=O)C3C(c4cc(F)cc(C(F)F)c4)C3(Cl)Cl)ccc2Cl)CC1` (racemic) [Compound 1547], the inhibition at 0.1 µM in experiment [1] came out at 100%. In addition, the EC50 in experiment [2] lay within 1 to 10 nM.
Turning to `N#CC1(NC(=O)c2cc(NC(=O)C3C(c4ccc(C(F)F)c(Cl)c4)C3(Cl)Cl)ccc2Cl)CC1` (racemic) [Compound 1548], the EC50 in experiment [2] is 10 to 25 nM.
Regarding `N#CC1(NC(=O)c2cc(NC(=O)C3C(c4cccc(C(F)F)c4)C3(Cl)Cl)ccc2Cl)CC1` (racemic) [Compound 1549], the inhibition at 0.1 µM in experiment [1] was found to be 100%.
For the molecule `O=C(NCC(F)(F)F)c1cc(NC(=O)C2C(c3cc(F)c(F)c(F)c3)C2(Cl)Cl)ccc1Cl` (racemic) [Compound 1551], the inhibition at 10 pM in experiment [1] turned out to be 100%.
In the case of `O=C(NCCC(F)(F)F)c1cc(NC(=O)C2C(c3cc(Cl)cc(Cl)c3)C2(Cl)Cl)cc(Cl)c1Cl` (racemic) [Compound 1552], the inhibition at 0.01 µM in experiment [1] was at least 80%.
Take `CCNC(=O)c1cc(NC(=O)C2C(c3cc(Cl)cc(Cl)c3)C2(Cl)Cl)cc(Cl)c1Cl` (racemic) [Compound 1553]: the inhibition at 0.01 µM in experiment [1] was 100%.
In the case of `O=C(NCC(F)(F)F)c1cc(NC(=O)C2C(c3ccc(F)c(Cl)c3)C2(Cl)Cl)cc(F)c1F` (racemic) [Compound 1554], the inhibition at 0.01 µM in experiment [1] is at least 80%.
`Cc1cc(NC(=O)C2C(c3ccc(F)c(Cl)c3)C2(Cl)Cl)cc(C(=O)NCCCCl)c1Cl` (racemic) [Compound 1557]: the inhibition at 0.01 µM in experiment [1] amounted to 100%.
On to `O=C(NCCF)c1cc(NC(=O)C2C(c3ccc(F)c(Cl)c3)C2(Cl)Cl)ccc1F` (racemic) [Compound 1558], for which the inhibition at 10 pM in experiment [1] stood at 100%.
For the molecule `O=C(NCC(F)(F)F)c1cc(NC(=O)C2C(c3ccc(F)c(Cl)c3)C2(Cl)Cl)ccc1F` (racemic) [Compound 1559], the inhibition at 10 pM in experiment [1] was 100%.
For the molecule `Cc1c(Cl)cc(NC(=O)C2C(c3ccc(F)c(Cl)c3)C2(Cl)Cl)cc1C(=O)NCC(F)(F)F` (racemic) [Compound 1561], the inhibition at 0.01 µM in experiment [1] is 100%.
On to `O=C(NCCCCl)c1cc(NC(=O)C2C(c3ccc(F)c(Cl)c3)C2(Cl)Cl)ccc1F` (racemic) [Compound 1563], for which the inhibition at 10 pM in experiment [1] is 100%.
Still for that read-out and setting: with `O=C(NCC(F)(F)F)c1cc(NC(=O)C2C(c3ccc(F)c(Cl)c3)C2(Cl)Cl)cc(F)c1Cl` (racemic) [Compound 1565] the figure was 100%.
Take `Cc1c(Cl)cc(NC(=O)C2C(c3ccc(F)c(Cl)c3)C2(Cl)Cl)cc1C(=O)NCCCCl` (racemic) [Compound 1566]: the inhibition at 0.01 µM in experiment [1] amounted to 100%.
In the case of `Cc1c(F)cc(NC(=O)C2C(c3ccc(F)c(Cl)c3)C2(Cl)Cl)cc1C(=O)NCC(F)(F)F` (racemic) [Compound 1567], the inhibition at 0.001 µM in experiment [1] came out at 100%.
With `O=C(NCC(F)(F)F)c1cc(NC(=O)C2C(c3ccc(F)c(Cl)c3)C2(Cl)Cl)cc(Cl)c1F` (racemic) [Compound 1570], the inhibition at 0.01 µM in experiment [1] was at least 80%.
As to `O=C(NCCC(F)(F)F)c1c(F)ccc(NC(=O)C2C(c3ccc(F)c(Cl)c3)C2(Cl)Cl)c1F` (racemic) [Compound 1573], in experiment [1], the inhibition at 0.01 µM amounted to 100%.
With `O=C(NCCCCl)c1cc(NC(=O)C2C(c3ccc(F)c(Cl)c3)C2(Cl)Cl)cc(F)c1F` (racemic) [Compound 1574], the inhibition at 0.001 µM in experiment [1] was 80%.
Turning to `CC(NC(=O)c1cc(NC(=O)C2C(c3cc(F)c(F)c(F)c3)C2(Cl)Cl)ccc1Cl)C(F)(F)F` (racemic) [Compound 1602], the inhibition at 0.01 µM in experiment [1] was found to be 100%. In addition, the EC50 in experiment [2] lay within 10 to 25 nM.
With `O=C(NC1CC(F)(F)C1)c1cc(NC(=O)C2C(c3cc(Cl)cc(Cl)c3)C2(Cl)Cl)ccc1Cl` (centres unmarked) [Compound 1531], the inhibition at 0.01 µM in experiment [1] came to 100%.
For `N#CC1(NC(=O)c2cc(NC(=O)C3C(c4ccc(F)c(Cl)c4)C3(Cl)Cl)cc(F)c2F)CC1` (centres unmarked) [Compound 1589], the inhibition at 0.001 µM in experiment [1] is 80%. The EC50 in experiment [2] is at most 1 nM.
As to `O=C(NCC(F)(F)F)c1cc(NC(=O)C2C(c3ccc(F)c(F)c3)C2(Cl)Cl)ccc1Cl` (centres unmarked) [Compound 1591], in experiment [1], the inhibition at 0.1 µM stood at 100%.
Turning to `CC(C)(NC(=O)c1cc(NC(=O)C2C(c3cc(F)c(F)c(F)c3)C2(Cl)Cl)ccc1Cl)C(F)(F)F` (centres unmarked) [Compound 1603], the inhibition at 0.01 µM in experiment [1] is at least 80%. Also, the EC50 in experiment [2] fell in the range of 10 to 25 nM.
Turning to `O=C(NC1(C(F)(F)F)CC1)c1cc(NC(=O)C2C(c3cc(F)c(F)c(F)c3)C2(Cl)Cl)ccc1Cl` (centres unmarked) [Compound 1604], the inhibition at 0.01 µM in experiment [1] worked out at 100%. The EC50 in experiment [2] was in the range of 10 to 25 nM.
As for `O=C(NC1CC(F)(F)C1)c1cc(NC(=O)C2C(c3cccc(C(F)(F)F)c3)C2(Cl)Cl)ccc1Cl` (centres unmarked) [Compound 1611], the inhibition at 0.1 µM in experiment [1] is 100%.
With `N#CC1(NC(=O)c2cc(NC(=O)C3C(c4cc(C(F)(F)F)cc(C(F)(F)F)c4)C3(Cl)Cl)ccc2Cl)CC1` (centres unmarked) [Compound 1612], the inhibition at 0.01 µM in experiment [1] was found to be 100%. Further, in experiment [2], the EC50 was in the range of 10 to 25 nM.
Turning to `O=C(NCC(F)(F)F)c1cc(NC(=O)C2C(c3cc(C(F)(F)F)cc(C(F)(F)F)c3)C2(Cl)Cl)ccc1Cl` (centres unmarked) [Compound 1613], the inhibition at 0.01 µM in experiment [1] is 100%. In addition, the EC50 in experiment [2] was at most 1 nM.
As for `CC1(NC(=O)c2cc(NC(=O)C3C(c4cc(Cl)cc(Cl)c4)C3(Cl)Cl)cc(F)c2F)CC1` (centres unmarked) [Compound 1616], in experiment [1], the inhibition at 0.1 µM turned out to be 100%.
For `O=C(NC1(C(F)(F)F)CC1)c1cc(NC(=O)C2C(c3cc(Cl)cc(Cl)c3)C2(Cl)Cl)ccc1F` (centres unmarked) [Compound 1627], in experiment [1], the inhibition at 0.1 µM is at least 80%.
On to `C#CCNC(=O)c1cc(NC(=O)C2C(c3cc(Cl)cc(Cl)c3)C2(Cl)Cl)cc(F)c1F` (centres unmarked) [Compound 1629], for which the inhibition at 0.1 µM in experiment [1] stood at 100%.
Take `C#CCNC(=O)c1cc(NC(=O)C2C(c3cc(Cl)cc(Cl)c3)C2(Cl)Cl)ccc1F` (centres unmarked) [Compound 1631]: the inhibition at 0.1 µM in experiment [1] came out at 100%.
